Experimental data: ChEMBL document CHEMBL5614405 (J Med Chem, 2024)
Calls of active or inactive are those of the source. The calls are words filed in the database; no cut-off is given here.

Assays:
[1] = Toxicity in chicken embryo chorioallantoic membrane assessed as irritation score at 1.55 mM measured after 5 mins by microscopic analysis relative to Latanoprost; format: tissue-based, Gallus gallus; conditions: in vivo, 1550 µM
[2] = target: Rho-associated protein kinase 1 (Homo sapiens, UniProt Q13464); assay: Inhibition of ROCK1 (unknown origin) incubated for 10 mins in presence of ATP by mobility shift assay
Rho-associated protein kinase 1, sequence (Q13464 whole entry): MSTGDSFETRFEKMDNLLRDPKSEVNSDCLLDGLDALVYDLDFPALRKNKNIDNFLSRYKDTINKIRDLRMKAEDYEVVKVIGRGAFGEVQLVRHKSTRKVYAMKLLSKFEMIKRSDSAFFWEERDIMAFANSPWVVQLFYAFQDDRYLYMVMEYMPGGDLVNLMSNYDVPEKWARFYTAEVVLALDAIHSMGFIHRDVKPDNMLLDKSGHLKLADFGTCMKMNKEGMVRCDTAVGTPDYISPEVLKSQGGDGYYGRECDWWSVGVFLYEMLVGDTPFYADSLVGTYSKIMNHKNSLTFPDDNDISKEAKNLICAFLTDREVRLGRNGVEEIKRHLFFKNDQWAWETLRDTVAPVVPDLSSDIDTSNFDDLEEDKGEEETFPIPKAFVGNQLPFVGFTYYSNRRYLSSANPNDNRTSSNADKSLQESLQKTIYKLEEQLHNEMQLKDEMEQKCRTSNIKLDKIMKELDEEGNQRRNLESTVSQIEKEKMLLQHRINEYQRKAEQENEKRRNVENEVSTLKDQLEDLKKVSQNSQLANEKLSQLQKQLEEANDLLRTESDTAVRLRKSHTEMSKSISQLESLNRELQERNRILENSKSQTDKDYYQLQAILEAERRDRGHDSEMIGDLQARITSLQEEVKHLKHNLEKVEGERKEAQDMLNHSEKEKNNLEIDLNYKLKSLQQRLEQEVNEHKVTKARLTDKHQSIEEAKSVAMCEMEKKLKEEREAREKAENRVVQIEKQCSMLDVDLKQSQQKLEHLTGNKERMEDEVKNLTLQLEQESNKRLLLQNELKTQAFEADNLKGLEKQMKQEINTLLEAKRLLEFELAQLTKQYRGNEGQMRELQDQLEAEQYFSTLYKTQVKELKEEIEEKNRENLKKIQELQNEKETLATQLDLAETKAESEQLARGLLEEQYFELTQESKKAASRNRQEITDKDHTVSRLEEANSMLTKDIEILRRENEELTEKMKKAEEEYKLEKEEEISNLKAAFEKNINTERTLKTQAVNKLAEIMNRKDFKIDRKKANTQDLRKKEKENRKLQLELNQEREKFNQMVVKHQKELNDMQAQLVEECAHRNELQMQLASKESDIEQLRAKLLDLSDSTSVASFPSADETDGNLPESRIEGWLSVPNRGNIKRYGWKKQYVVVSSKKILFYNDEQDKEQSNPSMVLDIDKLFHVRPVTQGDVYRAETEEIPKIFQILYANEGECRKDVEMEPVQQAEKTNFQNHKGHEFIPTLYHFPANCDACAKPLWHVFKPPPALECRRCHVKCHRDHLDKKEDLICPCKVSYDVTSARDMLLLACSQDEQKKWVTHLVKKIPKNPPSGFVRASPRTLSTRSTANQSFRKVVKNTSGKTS

[3] = target: Rho-associated protein kinase 2 (Homo sapiens, UniProt O75116); assay: Inhibition of ROCK2 (unknown origin) incubated for 60 mins in presence of ATP by mobility shift assay
Rho-associated protein kinase 2, sequence (O75116 whole entry): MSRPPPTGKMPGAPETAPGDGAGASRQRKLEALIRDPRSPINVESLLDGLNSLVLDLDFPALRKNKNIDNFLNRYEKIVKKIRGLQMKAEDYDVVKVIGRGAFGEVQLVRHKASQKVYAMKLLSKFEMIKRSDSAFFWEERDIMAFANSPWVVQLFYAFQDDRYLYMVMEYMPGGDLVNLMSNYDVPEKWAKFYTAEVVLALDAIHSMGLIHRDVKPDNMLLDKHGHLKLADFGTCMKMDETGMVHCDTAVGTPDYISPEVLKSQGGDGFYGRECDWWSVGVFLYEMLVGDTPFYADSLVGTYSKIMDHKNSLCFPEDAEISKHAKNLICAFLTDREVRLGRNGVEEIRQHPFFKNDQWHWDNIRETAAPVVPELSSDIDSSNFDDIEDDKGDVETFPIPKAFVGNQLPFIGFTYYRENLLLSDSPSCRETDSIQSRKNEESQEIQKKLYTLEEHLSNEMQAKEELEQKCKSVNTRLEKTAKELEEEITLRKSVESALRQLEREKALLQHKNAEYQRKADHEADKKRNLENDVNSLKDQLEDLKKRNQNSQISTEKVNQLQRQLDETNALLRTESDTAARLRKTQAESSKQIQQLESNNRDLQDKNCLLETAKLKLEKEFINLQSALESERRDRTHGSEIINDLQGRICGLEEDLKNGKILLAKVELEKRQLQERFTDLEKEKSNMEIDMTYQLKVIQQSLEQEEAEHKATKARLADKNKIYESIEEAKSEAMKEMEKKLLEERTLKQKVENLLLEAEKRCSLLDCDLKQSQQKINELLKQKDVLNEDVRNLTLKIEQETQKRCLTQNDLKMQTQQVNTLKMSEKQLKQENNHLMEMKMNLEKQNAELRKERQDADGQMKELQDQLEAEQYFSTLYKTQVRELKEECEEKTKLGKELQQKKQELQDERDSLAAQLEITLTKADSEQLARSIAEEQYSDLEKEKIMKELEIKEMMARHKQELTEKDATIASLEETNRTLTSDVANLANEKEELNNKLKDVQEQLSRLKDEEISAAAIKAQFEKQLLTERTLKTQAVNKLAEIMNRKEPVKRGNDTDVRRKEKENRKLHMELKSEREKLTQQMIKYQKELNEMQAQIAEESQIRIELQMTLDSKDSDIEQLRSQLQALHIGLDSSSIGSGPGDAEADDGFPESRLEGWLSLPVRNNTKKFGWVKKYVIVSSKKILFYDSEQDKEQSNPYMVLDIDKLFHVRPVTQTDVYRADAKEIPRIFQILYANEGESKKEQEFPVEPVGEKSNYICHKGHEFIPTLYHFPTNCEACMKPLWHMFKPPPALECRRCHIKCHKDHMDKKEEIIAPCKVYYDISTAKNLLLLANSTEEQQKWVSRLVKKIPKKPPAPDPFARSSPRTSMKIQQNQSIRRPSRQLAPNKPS

Oryctolagus cuniculus [4] = assay: Anti-glaucoma activity in methylcellulose-induced acute intraocular hypertensive New Zealand rabbit model assessed as reduction in intraocular pressure at 1.55 mM,TOP administration on conjunctival sac measured for 1 to 4 hrs; format: functional, organism-based; conditions: time 1-4 hrs
[5] = Toxicity in chicken embryo chorioallantoic membrane assessed as irritation score at 1.55 mM measured after 5 mins by microscopic analysis relative to Netarsudil; format: tissue-based, Gallus gallus; conditions: in vivo, 1550 µM
Oryctolagus cuniculus [6] = assay: Anti-glaucoma activity in methylcellulose-induced acute intraocular hypertensive New Zealand rabbit model assessed as reduction in intraocular pressure at 1.55 mM,TOP administration on conjunctival sac measured upto 24 hrs relative to Netarsudil; format: functional, organism-based

IC50 [2] [nM] | IC50 [3] [nM] | SMILES | Activity [1] | Activity (Oryctolagus cuniculus [4]) | Activity [5] | Activity (Oryctolagus cuniculus [6])
– | – | O=C(CCC/C=C\C[C@@H]1[C@@H](CC[C@@H](O)CCc2ccccc2)[C@H](O)C[C@@H]1O)OCCCCO[N+](=O)[O-] [LATANOPROSTENE BUNOD] | Toxic | – | – | –
1.48 | 0.83 | CS(=O)(=O)O.CS(=O)(=O)O.NCC(C(=O)Nc1ccc2cnccc2c1)c1ccc(COC(=O)c2ccc(CO[N+](=O)[O-])cc2)cc1 (stereo not drawn) | – | Active | Toxic | –
28.6 | 8.56 | NCC(C(=O)Nc1ccc2cnccc2c1)c1ccc(COC(=O)CCC(=O)O[C@@H]2CO[C@@H]3[C@H]2OC[C@@H]3O[N+](=O)[O-])cc1 (stereo partly drawn) | – | – | – | –
4.94 | 2.51 | CS(=O)(=O)O.CS(=O)(=O)O.NCC(C(=O)Nc1ccc2cnccc2c1)c1ccc(COC(=O)CCCO[N+](=O)[O-])cc1 (stereo not drawn) | – | – | Toxic | Active
29 | 5.15 | NCC(C(=O)Nc1ccc2cnccc2c1)c1ccc(COC(=O)CCCCO[N+](=O)[O-])cc1 (stereo not drawn) | – | – | – | –
